What was measured:
P388D1 cells = experiment: TNF-α secretion by P388D1 macrophage clones measured by ELISA; assay type: cell-based, murine; details: for Secretion of TNF-α caused by the stimulus: 1 μg/mL, overnight (18 hours), P388D1 doxycycline inducible clones; for Secretion of TNF-α: P388D1 cells stimulated with LPS or PMA
Excerpt: FIGS. 8a, 8b, 8c, and 8d compare the secretion of TNF-α by wild-type and kinase mutant P388D1 cells in response to activators of macrophage function or PYK2 activity. FIGS. 8a and 8b show the effect of LPS in the presence and absence of DOX on TNF-α secretion from kinase mutant (dominant negative; FIG. 8a) and wild-type (FIG. 8b) cells. FIGS. 8c and 8d show the effect of PMA in the presence and absence of DOX on TNF-α secretion from kinase mutant (FIG. 8c) and wild-type (FIG. 8d) cells. Induction of P388D1 cells in the presence of doxicycline was carried out for 48 hours followed by stimulation with LPS (1 μg/mL) or PMA (1 μg/mL) for 18 hrs. Secreted TNF-α was measured by ELISA.
TNF secretion in response to stimulation with either LPS (1 μg/mL) or PMA (1 μg/mL) by the doxycycline inducible clones is shown in FIG. 8. Induction in the presence of doxycycline was carried out for 48 hours followed by stimulation with LPS or PMA overnight (18 hours). […] Secreted TNF-α was measured by ELISA. […] Secretion of TNF-α was inhibited by herbimycin A and genestein, which are non-specific inhibitors of tyrosine phosphorylation.

Pyk2 = target: T1, Pyk2 (Mus musculus, UniProt Q9QVP9); experiment: Tyrosine phosphorylation of Pyk2 in response to LPS stimulation in P388D1 cells (anti-Pyk2 IP, anti-phosphotyrosine 4G10 western blot); assay type: cell-based, murine; details: P388D1 cells pre-treated 4 hours, then stimulated with LPS for 30 minutes
T1 construct: abrogates the function of the endogenous wild-type PYK2 protein in these macrophages; endogenous in cells; host or cells: P388D1 murine macrophage cell line
T1 sequence (Q9QVP9 whole entry): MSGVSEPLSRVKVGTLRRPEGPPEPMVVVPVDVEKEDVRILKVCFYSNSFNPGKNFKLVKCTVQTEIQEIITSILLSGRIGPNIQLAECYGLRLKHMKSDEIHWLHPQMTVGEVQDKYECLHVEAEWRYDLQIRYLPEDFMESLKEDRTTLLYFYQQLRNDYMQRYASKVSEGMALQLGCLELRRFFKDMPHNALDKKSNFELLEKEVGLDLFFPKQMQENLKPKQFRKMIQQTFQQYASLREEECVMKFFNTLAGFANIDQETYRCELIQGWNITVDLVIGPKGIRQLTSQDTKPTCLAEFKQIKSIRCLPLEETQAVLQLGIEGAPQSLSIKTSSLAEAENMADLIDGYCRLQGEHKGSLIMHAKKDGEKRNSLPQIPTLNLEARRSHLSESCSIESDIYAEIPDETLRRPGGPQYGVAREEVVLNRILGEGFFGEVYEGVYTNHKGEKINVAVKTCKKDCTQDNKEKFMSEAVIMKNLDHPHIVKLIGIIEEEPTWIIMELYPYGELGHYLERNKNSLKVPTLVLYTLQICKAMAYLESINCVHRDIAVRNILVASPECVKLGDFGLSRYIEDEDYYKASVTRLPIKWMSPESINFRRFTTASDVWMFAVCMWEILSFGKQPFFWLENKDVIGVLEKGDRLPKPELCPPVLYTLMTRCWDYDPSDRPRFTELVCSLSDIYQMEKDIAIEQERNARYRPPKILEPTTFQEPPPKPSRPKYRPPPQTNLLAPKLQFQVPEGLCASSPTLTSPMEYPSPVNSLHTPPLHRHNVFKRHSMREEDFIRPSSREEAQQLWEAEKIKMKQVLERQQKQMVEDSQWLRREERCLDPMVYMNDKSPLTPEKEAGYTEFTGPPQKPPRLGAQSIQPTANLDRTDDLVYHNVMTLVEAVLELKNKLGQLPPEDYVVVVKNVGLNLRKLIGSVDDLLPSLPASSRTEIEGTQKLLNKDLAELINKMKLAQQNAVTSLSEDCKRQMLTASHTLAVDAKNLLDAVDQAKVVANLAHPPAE
Experimental: FIGS. 6a and 6b show the tyrosine phosphorylation of PYK2 in macrophage cell lines in response to LPS (lipopolysaccharide) and tyrosine kinase inhibitors. Cells were either starved overnight in 0.5% serum and stimulated with LPS for variable time intervals (FIG. 6a), or were pre-treated with either herbimycin A or genestein for 4 hours and then stimulated with LPS for 30 minutes (FIG. 6b). After stimulation, cells were washed, lysed, and immunoprecipitated with anti-PYK2 antibody. Immunoprecipitates (IP) were then analyzed by western blotting.
Cells were lysed in lysis buffer containing 50 mM N-2-hydroxyethylpiperazine-N′-2-ethanesulferic acid (HEPES pH 7.5), 150 mM NaCl, 10% glycerol, 1% Triton X-100, 1.5 mM MgCl2, 1 mM ethyleneglycol-bis (β-aminoethyl ether)-N,N,N′N′-tetraacetic acid (EGTA), 10 μg leupeptin per mL, 10 μg aprotinin per mL, 1 mM phenylmethylsulfonyl fluoride (PMSF), 200 μM sodium orthovanadate and 100 mM sodium fluoride. […] The washed immunoprecipitates were incubated for 5 min with gel sample buffer at 100° C. and analyzed by sodium dodecyl sulfate polyacrylamide gel electrophoresis (SDS-PAGE). […]
Tyrosine phosphorylation of Pyk2 in response to LPS stimulation was measured in P388D1 cells. […] Immuno-precipitates were then analyzed by western blotting. Tyrosine phosphorylated bands were detected with the anti-phosphotyrosine antibody 4G10. […]

wild type macrophages = experiment: Cytoplasmic calcium release in single Fura-2 loaded adherent macrophages; assay type: cell-based, mice; details: wild type macrophages attached to cover slips
Experimental: Cells grown in 6-well plates were labeled for 24 h in medium-199 containing myo-[^3H]inositol(20 μCi/ml). The cells were washed once with PBS and pre-incubated for 10 min. in 2 ml of PBS containing 10 mM LiCl (PH 7.4) at 37° C. prior to the addition of chemokines. The cells were extracted with methanol/1M HCl/chloroform 1:1:1 and analyzed by high-performance liquid chromatography (HPLC) as described (Falasca, et al. (1998) EMBO J. 17:414-422). [Ca^2+] i measurements were performed in single macrophages as described (Falasca, et al. 1995).
Calcium plays an important role in the control of a variety of intracellular events as well as in the control of cell shape, and cell movement (Lawson and Maxfield, 1995). We therefore measured cytoplasmic calcium release in single cells in response to MIP1α stimulation by using quantitative fluorescence microscopy of Fura-2 loaded cells. […] Defect in calcium release may contribute towards the failure of the cells to detach at the rear end leading to impairment in cell migration since proteins that regulate the degradation of focal contact components and disassembly of F-actin require calcium for their action (Witke, et al. (1995) Cell 81:41-51; Kulkarni, et al. (1999) J. Biol Chem. 274:21265-21275).

Compound | Secretion of TNF-α caused by the stimulus (P388D1 cells) | Secretion of TNF-α (P388D1 cells) | Tyrosine phosphorylation of Pyk2 (Pyk2) | Maximum increase in cytoplasmic [Ca+2] concentration (wild type macrophages)
CCCCCCCCCCCCCC(=O)O[C@@H]1[C@@H](C)[C@@]2(O)[C@@H](C=C(CO)C[C@]3(O)C(=O)C(C)=C[C@@H]23)[C@@H]2C(C)(C)[C@]12OC(C)=O [PMA, phorbol 12-myristate 13-acetate] | caused secretion of TNF-α |  |  | 
O=c1c(-c2ccc(O)cc2)coc2cc(O)cc(O)c12 [genestein] |  | inhibited | diminished | 
CO[C@H]1[C@@H](OC)C[C@H](C)[C@@H](OC)C2=CC(=O)C=C(NC(=O)/C(C)=C/C=C\[C@H](OC)[C@@H](OC(N)=O)/C(C)=C/[C@@H]1C)C2=O [herbimycin A] |  | inhibited | diminished | 
MIP1α: chemokine used to stimulate macrophages |  |  |  | approximately 300 nM
lipopolysaccharide [LPS] | caused secretion of TNF-α |  |  | 

From patent publication US6861442B1, “PYK2 and inflammation” (Sugen, Inc., priority 1998, dated 2005)
